Measured values reported in PubChem BioAssay AID248 (DTP/NCI, 2004).
Where “and” joins values, the source holds several entries; their conditions need not be identical. Identical values can stand only once. Inconclusive results and toxic doses are left out.

Tested on: L1210 leukemia ip in BDF1 mice, survival T/C
Assay: NCI In Vivo Anticancer Drug Screen. Data for tumor model L1210 Leukemia (intraperitoneal) in B6D2F1 (BDF1) mice
Settings: endpoint: mean survival time, higher = longer survival
Method in brief: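 Tumor cells were implanted, animals were treated, and survival was followed. The result divides the treated measurement by the vehicle-control measurement.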

[1] = dose: 100.0 mg/kg/injection, schedule: Q01DX001 (ip), vehicle: saline
[2] = dose: 100.0 mg/kg/injection, schedule: Q01DX009 (ip), vehicle: saline
[3] = dose: 100.0 mg/kg/injection, schedule: Q04DX003 (ip), vehicle: saline
[4] = dose: 200.0 mg/kg/injection, schedule: Q01DX001 (ip), vehicle: saline
[5] = dose: 200.0 mg/kg/injection, schedule: Q01DX009 (ip), vehicle: saline
[6] = dose: 200.0 mg/kg/injection, schedule: Q04DX003 (ip), vehicle: saline
[7] = dose: 400.0 mg/kg/injection, schedule: Q01DX001 (ip), vehicle: saline
[8] = dose: 400.0 mg/kg/injection, schedule: Q01DX009 (ip), vehicle: saline
[9] = dose: 400.0 mg/kg/injection, schedule: Q04DX003 (ip), vehicle: saline
[10] = dose: 25.0 mg/kg/injection, schedule: Q01DX009 (ip), vehicle: saline with Tween-80
[11] = dose: 50.0 mg/kg/injection, schedule: Q01DX009 (ip), vehicle: saline with Tween-80
[12] = dose: 100.0 mg/kg/injection, schedule: Q01DX009 (ip), vehicle: saline with Tween-80
[13] = dose: 50.0 mg/kg/injection, schedule: Q04DX003 (ip), vehicle: saline
[14] = dose: 100.0 mg/kg/injection, schedule: Q01DX009 (ip), vehicle: Klucel (hydroxypropylcellulose) (HPC)
[15] = dose: 200.0 mg/kg/injection, schedule: Q01DX009 (ip), vehicle: Klucel (hydroxypropylcellulose) (HPC)

`Clc1cc[n+](-c2ccncc2)cc1` was tested, and the T/C [1] was 103 % of control, the T/C [2] was 100 % of control and 105 % of control and the T/C (dose: 100.0 mg/kg/injection, schedule: Q04DX002 (ip), vehicle: saline) was 97 % of control and 103 % of control. For the same compound, the T/C [3] was 95 % of control, the T/C [4] was 90 % of control and the T/C [5] was 105 % of control and 89 % of control. For the same compound, the T/C (dose: 200.0 mg/kg/injection, schedule: Q04DX002 (ip), vehicle: saline) was 94 % of control and 89 % of control, the T/C [6] was 101 % of control and the T/C [7] was 97 % of control. For the same compound, the T/C [8] was 97 % of control, the T/C (dose: 400.0 mg/kg/injection, schedule: Q04DX002 (ip), vehicle: saline) was 100 % of control and 92 % of control and the T/C [9] was 88 % of control.

For `CC12CCN=C1c1ccc3cc(O)ccc3c1CC2` (stereo unspecified), the T/C (dose: 100.0 mg/kg/injection, schedule: Q04DX003 (sc), vehicle: steriod suspending solution) was 93 % of control, the T/C (dose: 200.0 mg/kg/injection, schedule: Q04DX003 (sc), vehicle: steriod suspending solution) was 107 % of control and the T/C (dose: 400.0 mg/kg/injection, schedule: Q04DX003 (sc), vehicle: steriod suspending solution) was 96 % of control.

`C=CCOCC(O)CNCC(O)COCC=C` (stereo unspecified) was tested, and the T/C [10] was 98 % of control, the T/C (dose: 25.0 mg/kg/injection, schedule: Q04DX003 (ip), vehicle: saline with Tween-80) was 100 % of control and the T/C [11] was 101 % of control. The T/C (dose: 50.0 mg/kg/injection, schedule: Q04DX003 (ip), vehicle: saline with Tween-80) was 92 % of control, the T/C [12] was 101 % of control and the T/C (dose: 100.0 mg/kg/injection, schedule: Q04DX003 (ip), vehicle: saline with Tween-80) was 102 % of control.

In the case of `O=CN1CCCc2cc(C(=O)O)ccc21`, the T/C [2] was 90 % of control, the T/C [5] was 93 % of control and the T/C [8] was 86 % of control.

For `NC(CSS(=O)(=O)O)=NCc1ccoc1`, the T/C (dose: 12.5 mg/kg/injection, schedule: Q04DX002 (ip), vehicle: saline with Tween-80) was 98 % of control, the T/C (dose: 25.0 mg/kg/injection, schedule: Q04DX002 (ip), vehicle: saline with Tween-80) was 98 % of control and the T/C (dose: 50.0 mg/kg/injection, schedule: Q04DX002 (ip), vehicle: saline with Tween-80) was 95 % of control and 98 % of control.

For `C=C(Cl)COC1CCS(=O)(=O)C1` (stereo unspecified), the T/C (dose: 6.25 mg/kg/injection, schedule: Q01DX009 (ip), vehicle: saline with Tween-80) was 94 % of control and 101 % of control, the T/C (dose: 12.5 mg/kg/injection, schedule: Q01DX009 (ip), vehicle: saline with Tween-80) was 95 % of control and 97 % of control and the T/C [10] was 100 % of control and 122 % of control. For the same compound, the T/C [11] was 97 % of control.

`COCCCNCCCN1CC1` was tested, and the T/C (dose: 31.25 mg/kg/injection, schedule: Q04DX003 (ip), vehicle: saline) was 105 % of control, the T/C (dose: 62.5 mg/kg/injection, schedule: Q01DX009 (ip), vehicle: saline) was 106 % of control and the T/C (dose: 62.5 mg/kg/injection, schedule: Q04DX003 (ip), vehicle: saline) was 114 % of control.

For `C#CCOCC1CN(C)C(=O)O1` (stereo unspecified), the T/C (dose: 25.0 mg/kg/injection, schedule: Q01DX009 (ip), vehicle: saline) was 90 % of control, the T/C (dose: 50.0 mg/kg/injection, schedule: Q01DX009 (ip), vehicle: saline) was 110 % of control and the T/C [13] was 103 % of control. For the same compound, the T/C [2] was 100 % of control, the T/C [3] was 106 % of control and the T/C [5] was 117 % of control. The T/C [6] was 103 % of control, the T/C [8] was 100 % of control and the T/C [9] was 92 % of control.

For `CNC(=O)c1ccc(Cl)c(S(=O)(=O)NC)c1`, the T/C (dose: 100.0 mg/kg/injection, schedule: Q04DX002 (ip), vehicle: Klucel (hydroxypropylcellulose) (HPC)) was 100 % of control, the T/C (dose: 200.0 mg/kg/injection, schedule: Q04DX002 (ip), vehicle: Klucel (hydroxypropylcellulose) (HPC)) was 104 % of control and the T/C (dose: 400.0 mg/kg/injection, schedule: Q04DX002 (ip), vehicle: Klucel (hydroxypropylcellulose) (HPC)) was 107 % of control.

With `Clc1c(Cl)c(Cl)c(C(c2c(Cl)c(Cl)c(Cl)c(Cl)c2Cl)c2c(Cl)c(Cl)c(Cl)c(Cl)c2Cl)c(Cl)c1Cl` the T/C [12] was 97 % of control, the T/C (dose: 200.0 mg/kg/injection, schedule: Q01DX009 (ip), vehicle: saline with Tween-80) was 93 % of control and the T/C (dose: 400.0 mg/kg/injection, schedule: Q01DX009 (ip), vehicle: saline with Tween-80) was 89 % of control.

`CNC1CC2CCC(C2)C1(O)c1ccccc1` (stereo unspecified) was tested, and the T/C (dose: 25.0 mg/kg/injection, schedule: Q04DX003 (ip), vehicle: saline) was 91 % of control, the T/C [13] was 113 % of control and the T/C [1] was 100 % of control. For the same compound, the T/C [3] was 102 % of control.

With `CS(=O)(=O)OCC1CC=CCC1COS(C)(=O)=O` (stereo unspecified) the T/C [14] was 96 % of control, the T/C [15] was 102 % of control and the T/C (dose: 400.0 mg/kg/injection, schedule: Q01DX009 (ip), vehicle: Klucel (hydroxypropylcellulose) (HPC)) was 94 % of control.

For `c1ccc(C2c3ccccc3C(c3ccccc3)(c3ccccc3)c3ccccc32)cc1`, the T/C (dose: 100.0 mg/kg/injection, schedule: Q01DX001 (ip), vehicle: other) was 91 % of control, the T/C (dose: 200.0 mg/kg/injection, schedule: Q01DX001 (ip), vehicle: other) was 91 % of control and the T/C (dose: 400.0 mg/kg/injection, schedule: Q01DX001 (ip), vehicle: other) was 91 % of control.

In the case of `CSCSCC(N)C(=O)O` (stereo unspecified), the T/C [1] was 94 % of control, the T/C (dose: 150.0 mg/kg/injection, schedule: Q04DX003 (ip), vehicle: saline) was 100 % of control and the T/C [4] was 100 % of control. For the same compound, the T/C (dose: 300.0 mg/kg/injection, schedule: Q04DX003 (ip), vehicle: saline) was 94 % of control, the T/C [7] was 100 % of control and the T/C (dose: 600.0 mg/kg/injection, schedule: Q04DX003 (ip), vehicle: saline) was 97 % of control.

`N[C@H](Cc1c[nH]c2ccccc12)C(=O)O` was tested, and the T/C (dose: 100.0 mg/kg/injection, schedule: Q01DX009 (ip), vehicle: acetone) was 95 % of control, the T/C (dose: 200.0 mg/kg/injection, schedule: Q01DX009 (ip), vehicle: acetone) was 104 % of control and the T/C (dose: 400.0 mg/kg/injection, schedule: Q01DX009 (ip), vehicle: acetone) was 102 % of control. The T/C (dose: 800.0 mg/kg/injection, schedule: Q01DX009 (ip), vehicle: acetone) was 95 % of control.

For `COc1cccc2c1C(=O)c1c(O)c3c(c(O)c1C2=O)C[C@@](O)(/C(C)=N\NC(N)=O)C[C@@H]3OC1CC(N)C(O)C(C)O1` (stereo partly specified), the T/C (dose: 1.5 mg/kg/injection, schedule: Q01DX009 (ip), vehicle: saline) was 107 % of control, the T/C (dose: 2.0 mg/kg/injection, schedule: Q04DX003 (ip), vehicle: water) was 110 % of control and the T/C (dose: 3.0 mg/kg/injection, schedule: Q01DX009 (ip), vehicle: saline) was 112 % of control. The T/C (dose: 3.12 mg/kg/injection, schedule: Q01DX009 (ip), vehicle: saline) was 113 % of control, the T/C (dose: 4.0 mg/kg/injection, schedule: Q04DX003 (ip), vehicle: water) was 120 % of control and the T/C (dose: 6.0 mg/kg/injection, schedule: Q01DX009 (ip), vehicle: saline) was 117 % of control. For the same compound, the T/C (dose: 6.25 mg/kg/injection, schedule: Q01DX009 (ip), vehicle: saline) was 150 % of control, the T/C (dose: 8.0 mg/kg/injection, schedule: Q04DX003 (ip), vehicle: saline) was 111 % of control and the T/C (dose: 12.5 mg/kg/injection, schedule: Q01DX009 (ip), vehicle: saline) was 155 % of control. For the same compound, the T/C (dose: 12.5 mg/kg/injection, schedule: Q04DX003 (ip), vehicle: saline) was 124 % of control, the T/C (dose: 24.0 mg/kg/injection, schedule: Q01DX009 (ip), vehicle: saline) was 124 % of control and the T/C [13] was 157 % of control. The T/C (dose: 125.0 micrograms/kg/injection, schedule: Q04DX003 (ip), vehicle: water) was 105 % of control, the T/C (dose: 250.0 micrograms/kg/injection, schedule: Q04DX003 (ip), vehicle: water) was 107 % of control and the T/C (dose: 500.0 micrograms/kg/injection, schedule: Q04DX003 (ip), vehicle: water) was 108 % of control. For the same compound, the T/C (dose: 1000.0 micrograms/kg/injection, schedule: Q04DX003 (ip), vehicle: water) was 107 % of control and the T/C (dose: 2000.0 micrograms/kg/injection, schedule: Q04DX003 (ip), vehicle: water) was 110 % of control.

`COc1ccc(C2=NNc3n[nH]c(=S)n3N2)cc1OC` was tested, and the T/C (dose: 50.0 mg/kg/injection, schedule: Q01DX009 (ip), vehicle: Klucel (hydroxypropylcellulose) (HPC)) was 96 % of control, the T/C [14] was 96 % of control and the T/C [15] was 112 % of control.

`N#CC(NC(=O)NCCCl)c1ccccc1` (stereo unspecified) was tested, and the T/C (dose: 100.0 mg/kg/injection, schedule: Q04DX003 (ip), vehicle: Klucel (hydroxypropylcellulose) (HPC)) was 104 % of control and the T/C (dose: 200.0 mg/kg/injection, schedule: Q04DX003 (ip), vehicle: Klucel (hydroxypropylcellulose) (HPC)) was 101 % of control.
